These results are taken from ChEMBL document CHEMBL1159026, “Brominated beta-carbolines from the marine tunicate Eudistoma album” (1992).

What all share (format): functional
Assay [1] has as its system KB. Kind of assay: Cytotoxicity against human KB cells at 0.005 to 10 ug/ml.
Assay [2] relates to KB. Kind of assay: Cytotoxicity against human KB cells. To be noted: read-out: ED50 (the source's name).
Assay [3] relates to KB. As to the kind of experiment: Cytotoxicity against human KB cells at 1 ug/ml.
Assay [4] has as its system KB. Kind of assay: Cytotoxicity against human KB cells at 10 ug/ml.
Assay [5] deals with KB. Kind of assay: Cytotoxicity against human KB cells at 5 ug/ml.

≈ marks a conversion by molar mass, not a printed value. A value given as a limit tells only on which side of the number the result lay.

On to `CC(C)CC(N)c1nccc2c1[nH]c1cc(Br)ccc12` (centres undefined) [EUDISTALBIN A], for which the EC50 in assay [1] (Homo sapiens, KB, read-out: ED50 (the source's name)) came to 3.2 µg/mL (≈ 9.63 µM); in assay [2], 3.2 µg/mL (≈ 9.63 µM). The Activity in assay [3] was 0%; in assay [4] it was 100%; in assay [5], 92%.

With `CC(C)CC(=O)c1nccc2c1[nH]c1cc(Br)ccc12` [EUDISTALBIN B], the Activity in assay [3] and in assay [4] was 0% in each case.

With `N[C@@H]1CSCON2CCc3c([nH]c4ccc(O)c(Br)c34)[C@H]12` [EUDISTOMIN E], in assay [1], the Activity was determined as 100%. The EC50 in assay [2] is less than 0.005 µg/mL.
